# Legend:
# [1] = tested on: HeLa cells; assay: Proliferation assay (crystal violet); format: cell-based; conditions: Homo sapiens, 96 h, 4 days incubation, read-out: Inhibition of proliferation HeLa IC50
# Description: Cultivated tumor cells (cells were ordered from ATCC, except HeLa-MaTu and HeLa-MaTu-ADR, which were ordered from EPO-GmbH, Berlin) were plated at a density of 1000 to 5000 cells/well, depending on the growth rate of the respective cell line, in a 96-well multititer plate in 200 μL of their respective growth medium supplemented 10% fetal calf serum. After 24 hours, the cells of one plate (zero-point plate) were stained with crystal violet (see below), while the medium of the other plates was replaced by fresh culture medium (200 μl), to which the test substances were added in various concentrations (0 μM, as well as in the range of 0.001-10 μM; the final concentration of the solvent dimethyl sulfoxide was 0.5%). The cells were incubated for 4 days in the presence of test substances. Cell proliferation was determined by staining the cells with crystal violet: the cells were fixed by adding 20 μl/measuring point of an 11% glutaric aldehyde solution for 15 minutes at room temperature. After three washing cycles of the fixed cells with water, the plates were dried at room temperature. The cells were stained by adding 100 μl/measuring point of a 0.1% crystal violet solution (pH 3.0). After three washing cycles of the stained cells with water, the plates were dried at room temperature. The dye was dissolved by adding 100 μl/measuring point of a 10% acetic acid solution. Absorption was determined by photometry at a wavelength of 595 nm. The change of cell number, in percent, was calculated by normalization of the measured values to the absorption values of the zero-point plate (=0%) and the absorption of the untreated (0 μm) cells (=100%). The IC50 values were determined by means of a 4 parameter fit.
# [2] = molecular target: T1, human Bub1 (Homo sapiens, UniProt O43683); assay: Bub1 kinase assay (TR-FRET); format: biochemical; conditions: 10 μM ATP
# T1 construct: catalytic domain of human Bub1 (amino acids 704-1085); His6 (N); made in house; host or cells: insect cells (Hi5)
# From the text: Bub1-inhibitory activity of compounds of the present invention was quantified employing the Bub1 TR-FRET assay as described in the following paragraphs.
# N-terminally His6-tagged recombinant catalytic domain of human Bub1 (amino acids 704-1085), expressed in insect cells (Hi5) and purified by Ni-NTA affinity chromatography and subsequent size exclusion chromatography, was used as enzyme. As substrate for the kinase reaction the biotinylated peptide biotin-Ahx-VLLPKKSFAEPG (C-terminus in amid form) was used which can be purchased e.g. form the company Biosyntan (Berlin, Germany).
# For the assay 50 nl of a 100 fold concentrated solution of the test compound in DMSO was pipetted into a black low volume 384 well microtiter plate (Greiner Bio-One, Frickenhausen, Germany), 2 μl of a solution of Bub1 in aqueous assay buffer [50 mM Tris/HCl pH 7.5, 10 mM magnesium chloride (MgCl2), 200 mM potassium chloride (KCl), 1.0 mM dithiothreitol (DTT), 0.1 mM sodium ortho-vanadate, 1% (v/v) glycerol, 0.01% (w/v) bovine serum albumine (BSA), 0.005% (v/v) Trition X-100 (Sigma), 1× Complete EDTA-free protease inhibitor mixture (Roche)] were added and the mixture was incubated for 15 min at 22° C. to allow pre-binding of the test compounds to the enzyme before the start of the kinase reaction. Then the kinase reaction was started by the addition of 3 μl of a solution of adenosine-tri-phosphate (ATP, 16.7 μM=>final conc. in the 5 μl assay volume is 10 μM) and substrate (1.67 μM=>final conc. in the 5 μl assay volume is 1 μM) in assay buffer and the resulting mixture was incubated for a reaction time of 60 min at 22° C. The concentration of Bub1 was adjusted depending of the activity of the enzyme lot and was chosen appropriate to have the assay in the linear range, typical concentrations were in the range of 200 ng/ml. The reaction was stopped by the addition of 5 μl of a solution of TR-FRET detection reagents (0.2 μM streptavidine-XL665 [Cisbio Bioassays, Codolet, France] and 1 nM anti-phosho-Serine antibody [Merck Millipore, cat. #35-001] and 0.4 nM LANCE EU-W1024 labeled anti-mouse IgG antibody [Perkin-Elmer, product no. AD0077, as an alternative a Terbium-cryptate-labeled anti-mouse IgG antibody from Cisbio Bioassays can be used]) in an aqueous EDTA-solution (50 mM EDTA, 0.2% (w/v) bovine serum albumin in 100 mM HEPES pH 7.5).
# The resulting mixture was incubated 1 h at 22° C. to allow the formation of complex between the phosphorylated biotinylated peptide and the detection reagents. Subsequently the amount of phosphorylated substrate was evaluated by measurement of the resonance energy transfer from the Eu-chelate to the streptavidine-XL. Therefore, the fluorescence emissions at 620 nm and 665 nm after excitation at 350 nm was measured in a TR-FRET reader, e.g. a Rubystar or Pherastar (both from BMG Labtechnologies, Offenburg, Germany) or a Viewlux (Perkin-Elmer). The ratio of the emissions at 665 nm and at […] was taken as the measure for the amount of phosphorylated substrate. The data were normalised (enzyme reaction without inhibitor=0% inhibition, all other assay components but no enzyme=100% inhibition).
# T1 sequence (O43683 704-1085): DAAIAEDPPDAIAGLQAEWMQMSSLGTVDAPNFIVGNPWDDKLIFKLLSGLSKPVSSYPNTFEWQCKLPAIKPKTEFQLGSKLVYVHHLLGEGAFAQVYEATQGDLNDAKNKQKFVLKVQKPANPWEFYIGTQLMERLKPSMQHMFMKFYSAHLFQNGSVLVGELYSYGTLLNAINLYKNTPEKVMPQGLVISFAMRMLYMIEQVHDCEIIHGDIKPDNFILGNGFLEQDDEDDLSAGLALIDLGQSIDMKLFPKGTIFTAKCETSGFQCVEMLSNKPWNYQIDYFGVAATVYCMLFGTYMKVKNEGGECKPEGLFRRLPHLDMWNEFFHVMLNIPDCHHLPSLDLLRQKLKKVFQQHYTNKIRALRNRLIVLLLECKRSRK
Compound,IC50 [1] [µM],IC50 [2] [µM]
"COc1ccc(NC(=O)c2c(C)noc2Nc2cnc(C(F)(F)F)cn2)cn1 [Example 2c, N-(6-methoxypyridin-3-yl)-3-methyl-5-{[5-(trifluoromethyl)pyrazin-2-yl]amino}-1,2-oxazole-4-carboxamide]",2.7,> 20
"Cc1noc(Nc2cnc(C(F)(F)F)cn2)c1C(=O)Nc1ccc(OC[C@@H]2CCN(CC(F)F)C2)nc1 [Example 3a, N-(6-{[(3R)-1-(2,2-difluoroethyl)pyrrolidin-3-yl]methoxy}pyridin-3-yl)-3-methyl-5-{[5-(trifluoromethyl)pyrazin-2-yl]amino}-1,2-oxazole-4-carboxamide]",3.4,> 20
"Cc1noc(Nc2cnc(C(F)(F)F)cn2)c1C(=O)Nc1ccc(OC[C@@H]2CCN(CC(F)(F)F)C2)nc1 [Example 4a, 3-Methyl-N-(6-{[(3R)-1-(2,2,2-trifluoroethyl)pyrrolidin-3-yl]methoxy}pyridin-3-yl)-5-{[5-(trifluoromethyl)pyrazin-2-yl]amino}-1,2-oxazole-4-carboxamide]",2.8,> 20
"Cc1noc(Nc2cnc(C(F)(F)F)cn2)c1C(=O)Nc1ccc(OC[C@@H]2CCN(CCC(F)(F)F)C2)nc1 [Example 5a, 3-Methyl-5-{[5-(trifluoromethyl)pyrazin-2-yl]amino}-N-(6-{[(3R)-1-(3,3,3-trifluoro-propyl)pyrrolidin-3-yl]methoxy}pyridin-3-yl)-1,2-oxazole-4-carboxamide]",3.3,> 20
"Cc1noc(Nc2cnc(C(F)(F)F)cn2)c1C(=O)Nc1ccc(OC[C@H]2CCN(CC(F)F)C2)nc1 [Example 7a, N-(6-{[(3S)-1-(2,2-difluoroethyl)pyrrolidin-3-yl]methoxy}pyridin-3-yl)-3-methyl-5-{[5-(trifluoromethyl)pyrazin-2-yl]amino}-1,2-oxazole-4-carboxamide]",4,> 20
"Cc1noc(Nc2cnc(C(F)(F)F)cn2)c1C(=O)Nc1ccc(OC[C@H]2CCN(CC(F)(F)F)C2)nc1 [Example 8a, 3-Methyl-N-(6-{[(3S)-1-(2,2,2-trifluoroethyl)pyrrolidin-3-yl]methoxy}pyridin-3-yl)-5-{[5-(trifluoromethyl)pyrazin-2-yl]amino}-1,2-oxazole-4-carboxamide]",1.9,> 20
"Cc1noc(Nc2cnc(C(F)(F)F)cn2)c1C(=O)Nc1ccc(OC[C@H]2CCN(CCC(F)(F)F)C2)nc1 [Example 9a, 3-Methyl-5-{[5-(trifluoromethyl)pyrazin-2-yl]amino}-N-(6-{[(3S)-1-(3,3,3-trifluoro-propyl)pyrrolidin-3-yl]methoxy}pyridin-3-yl)-1,2-oxazole-4-carboxamide]",3.1,> 20

# Source: patent US20170217946A1, “AMINO-SUBSTITUTED ISOXAZOLES” (Bayer Pharma Aktiengesellschaft, priority 2014, published 2017)
